Reference: US9139523B2, “5-HT2B receptor antagonists” (Janssen Pharmaceutica, NV, priority 2010, dated 2015)

Tested on: anesthetized guinea-pig
Assay: Cardiovascular effects in the anaesthetized guinea-pig
Format: in vivo
Description: Female guinea-pigs were anesthetized with sodium pentobarbital (66 mg/kg i.p.) followed by a continuous i.v. infusion of 6 mg/h of sodium pentobarbital and prepared for measurements of the surface electrocardiogram (ECG), heart rate and mean arterial blood pressure (see De Clerck et al, Fundam. Clin. Pharm.; 2002; 16: 125-140). Compound (−)-17 was dissolved in 20% hydroxypropyl-cyclodextrin with NaOH, HCl and mannitol in pyrogen-free water and administered intravenously (0.5 ml/kg) in increasing doses (0.16, 0.32, 0.64, 1.25, 2.5 and 5 mg/kg) over a period of 5 min at 15-min intervals. Plasma concentrations of Compound (−)-17 were measured at the end of each infusion. Corresponding volumes of vehicle were administered according to the same protocol in a second group of animals.

[1] = guinea pig i.v. 0.16 mg/kg @ 2′
[2] = guinea pig i.v. 0.16 mg/kg @ 5′
[3] = guinea pig i.v. 0.16 mg/kg @ 15′
[4] = guinea pig i.v. 0.32 mg/kg @ 2′
[5] = guinea pig i.v. 0.32 mg/kg @ 5′
[6] = guinea pig i.v. 0.32 mg/kg @ 15′
[7] = guinea pig i.v. 0.64 mg/kg @ 2′
[8] = guinea pig i.v. 0.64 mg/kg @ 5′
[9] = guinea pig i.v. 0.64 mg/kg @ 15′
[10] = guinea pig i.v. 1.25 mg/kg @ 2′
[11] = guinea pig i.v. 1.25 mg/kg @ 5′
[12] = guinea pig i.v. 1.25 mg/kg @ 15′
[13] = guinea pig i.v. 2.5 mg/kg @ 15′

COc1cc(N)c(Cl)cc1C(=O)NC1CCN(CCCOc2ccc(F)cc2)CC1(F)F (single isomer, unassigned) [Compound (−)-17, 4-amino-5-chloro-N-{3,3-difluoro-1-[3-(4-fluorophenoxy)-propyl]-piperidin-4-yl}-2-methoxybenzamide]
HR, percentage change relative to baseline [1]: −1%
MBP, percentage change relative to baseline [1]: 4%
PQ, percentage change relative to baseline [1]: 0%
QRS, percentage change relative to baseline [1]: −2%
QT, percentage change relative to baseline [1]: 0%
QTc B, percentage change relative to baseline [1]: −1%
HR, percentage change relative to baseline [2]: 0%
PQ, percentage change relative to baseline [2]: 1%
QRS, percentage change relative to baseline [2]: −2%
QT, percentage change relative to baseline [2]: −1%
QTc B, percentage change relative to baseline [2]: −1%
HR, percentage change relative to baseline [3]: −2%
MBP, percentage change relative to baseline [3]: −3%
PQ, percentage change relative to baseline [3]: 4%
QRS, percentage change relative to baseline [3]: 0%
QT, percentage change relative to baseline [3]: 1%
QTc B, percentage change relative to baseline [3]: 1%
HR, percentage change relative to baseline [4]: −1%
MBP, percentage change relative to baseline [4]: 6%
PQ, percentage change relative to baseline [4]: 2%
QRS, percentage change relative to baseline [4]: −2%
QT, percentage change relative to baseline [4]: 0%
QTc B, percentage change relative to baseline [4]: 1%
HR, percentage change relative to baseline [5]: −4%
MBP, percentage change relative to baseline [5]: 2%
PQ, percentage change relative to baseline [5]: 4%
QRS, percentage change relative to baseline [5]: 0%
QT, percentage change relative to baseline [5]: 3%
QTc B, percentage change relative to baseline [5]: 1%
HR, percentage change relative to baseline [6]: −4%
MBP, percentage change relative to baseline [6]: −3%
PQ, percentage change relative to baseline [6]: 4%
QRS, percentage change relative to baseline [6]: 0%
QT, percentage change relative to baseline [6]: 4%
QTc B, percentage change relative to baseline [6]: 3%
HR, percentage change relative to baseline [7]: −5%
MBP, percentage change relative to baseline [7]: 6%
PQ, percentage change relative to baseline [7]: 5%
QRS, percentage change relative to baseline [7]: 0%
QT, percentage change relative to baseline [7]: 7%
QTc B, percentage change relative to baseline [7]: 4%
HR, percentage change relative to baseline [8]: −2%
MBP, percentage change relative to baseline [8]: 13%
PQ, percentage change relative to baseline [8]: 5%
QRS, percentage change relative to baseline [8]: −5%
QT, percentage change relative to baseline [8]: 5%
QTc B, percentage change relative to baseline [8]: 2%
HR, percentage change relative to baseline [9]: −5%
MBP, percentage change relative to baseline [9]: −5%
PQ, percentage change relative to baseline [9]: 4%
QRS, percentage change relative to baseline [9]: −3%
QT, percentage change relative to baseline [9]: 8%
QTc B, percentage change relative to baseline [9]: 4%
HR, percentage change relative to baseline [10]: −7%
MBP, percentage change relative to baseline [10]: 4%
PQ, percentage change relative to baseline [10]: 5%
QRS, percentage change relative to baseline [10]: −2%
QT, percentage change relative to baseline [10]: 8%
QTc B, percentage change relative to baseline [10]: 4%
HR, percentage change relative to baseline [11]: −7%
MBP, percentage change relative to baseline [11]: 15%
PQ, percentage change relative to baseline [11]: 6%
QRS, percentage change relative to baseline [11]: 0%
QT, percentage change relative to baseline [11]: 6%
QTc B, percentage change relative to baseline [11]: 2%
HR, percentage change relative to baseline [12]: 0%
MBP, percentage change relative to baseline [12]: 9%
PQ, percentage change relative to baseline [12]: 6%
QRS, percentage change relative to baseline [12]: −3%
QT, percentage change relative to baseline [12]: 2%
QTc B, percentage change relative to baseline [12]: 3%
HR, percentage change relative to baseline (guinea pig i.v. 2.5 mg/kg @ 2′): −5%
PQ, percentage change relative to baseline (guinea pig i.v. 2.5 mg/kg @ 2′): 7%
QRS, percentage change relative to baseline (guinea pig i.v. 2.5 mg/kg @ 2′): −3%
QT, percentage change relative to baseline (guinea pig i.v. 2.5 mg/kg @ 2′): 6%
QTc B, percentage change relative to baseline (guinea pig i.v. 2.5 mg/kg @ 2′): 4%
HR, percentage change relative to baseline (guinea pig i.v. 2.5 mg/kg @ 5′): −6%
MBP, percentage change relative to baseline (guinea pig i.v. 2.5 mg/kg @ 5′): 21%
PQ, percentage change relative to baseline (guinea pig i.v. 2.5 mg/kg @ 5′): 7%
QRS, percentage change relative to baseline (guinea pig i.v. 2.5 mg/kg @ 5′): −3%
QT, percentage change relative to baseline (guinea pig i.v. 2.5 mg/kg @ 5′): 6%
QTc B, percentage change relative to baseline (guinea pig i.v. 2.5 mg/kg @ 5′): 3%
HR, percentage change relative to baseline [13]: −4%
MBP, percentage change relative to baseline [13]: 8%
PQ, percentage change relative to baseline [13]: 8%
QRS, percentage change relative to baseline [13]: 0%
QT, percentage change relative to baseline [13]: 6%
QTc B, percentage change relative to baseline [13]: 5%
HR, percentage change relative to baseline (guinea pig i.v. 5 mg/kg @ 2′): −3%
PQ, percentage change relative to baseline (guinea pig i.v. 5 mg/kg @ 2′): 6%
QRS, percentage change relative to baseline (guinea pig i.v. 5 mg/kg @ 2′): −2%
QT, percentage change relative to baseline (guinea pig i.v. 5 mg/kg @ 2′): 7%
QTc B, percentage change relative to baseline (guinea pig i.v. 5 mg/kg @ 2′): 5%
HR, percentage change relative to baseline (guinea pig i.v. 5 mg/kg @ 5′): −3%
PQ, percentage change relative to baseline (guinea pig i.v. 5 mg/kg @ 5′): 6%
QRS, percentage change relative to baseline (guinea pig i.v. 5 mg/kg @ 5′): 0%
QT, percentage change relative to baseline (guinea pig i.v. 5 mg/kg @ 5′): 3%
QTc B, percentage change relative to baseline (guinea pig i.v. 5 mg/kg @ 5′): 2%
effect on heart rate, duration of PQ, QRS, QT and QTcB intervals, ECG morphology (guinea pig, 0.16 up to 5 mg/kg i.v., relative to vehicle): no relevant effect
mean arterial blood pressure (guinea pig, from 2.5 mg/kg i.v. onwards): started to increase
